# In US11919901B2 (Syndax Pharmaceuticals, Inc., priority 2021, dated 2024):
# Read-outs that look alike come from different tables or passages of the source.
# Tests used:
# MV4-11 cells = test: Cell proliferation assay MV4;11 (CellTiter-Glo, 72 hours); type: cell-based; details: Homo sapiens, read-out: MV4
# Procedure, shortened: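 MV4-11 cells (MLL1-AF4 fusion) exposed 72 h at 37 °C to 8 compound concentrations, final 0.632–2000 nM. Viability by CellTiter-Glo luminescence as % of vehicle RLU; % max inhibition = 100 − viability at top concentration.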
# [1] = biological target: human Menin and N-terminal portion of human MLL (amino acids 4-43) (Homo sapiens (Human), UniProt O00255); test: Menin-MLL competition assay (HTRF); type: binding; details: 1 hr incubation
# Source text: Menin-MLL is a competition assay between human Menin and N-terminal portion of human MLL representing amino acids 4-43 of the protein. The interaction between Menin and MLL peptide was monitored by HTRF employing Terbium labeled anti-His6 antibody directed to the N-terminal His6-tag on recombinant Menin and FITC group covalently attached to the MLL peptide. The N-terminal fragment of MLL, retained in all MLL fusion proteins, is involved in the interactions with Menin, and this protein-protein interaction is critical for the MLL fusion proteins mediated leukemogenic transformations.
# For IC50 determination test compounds were prepared as 10 mM DMSO stock solutions. Considering DMSO as the vehicle in the assay system. Lower sub-stocks of 50 μM were prepared from the 10 mM stock solution. To test the compounds in assay, 3.16-fold serial dilutions are made in 100% DMSO. Mid-stock of 50× compounds (50 μM) were serially diluted (3.16 fold) in 100% DMSO in Polypropylene plate. In assay plate 1 micro-litre of the previously prepared compound dilution was stamped. H-FL-Menin diluted to 4 nM in assay buffer (50 mM Tris-HCl, pH 7.4, 50 mM NaCl, freshly prepared 1 mM DTT, 0.01% BSA, 0.005% Triton X-100) was pre-incubated with 8 nM anti-His6-Tb for 30 min at room temperature. […]
# [2] = MV4;11 leukemia cell line, 72 hours, 11 IC50
# human Menin and N-terminal portion of human MLL (amino acids 4-43), sequence (O00255 whole entry, the tested form may be a part): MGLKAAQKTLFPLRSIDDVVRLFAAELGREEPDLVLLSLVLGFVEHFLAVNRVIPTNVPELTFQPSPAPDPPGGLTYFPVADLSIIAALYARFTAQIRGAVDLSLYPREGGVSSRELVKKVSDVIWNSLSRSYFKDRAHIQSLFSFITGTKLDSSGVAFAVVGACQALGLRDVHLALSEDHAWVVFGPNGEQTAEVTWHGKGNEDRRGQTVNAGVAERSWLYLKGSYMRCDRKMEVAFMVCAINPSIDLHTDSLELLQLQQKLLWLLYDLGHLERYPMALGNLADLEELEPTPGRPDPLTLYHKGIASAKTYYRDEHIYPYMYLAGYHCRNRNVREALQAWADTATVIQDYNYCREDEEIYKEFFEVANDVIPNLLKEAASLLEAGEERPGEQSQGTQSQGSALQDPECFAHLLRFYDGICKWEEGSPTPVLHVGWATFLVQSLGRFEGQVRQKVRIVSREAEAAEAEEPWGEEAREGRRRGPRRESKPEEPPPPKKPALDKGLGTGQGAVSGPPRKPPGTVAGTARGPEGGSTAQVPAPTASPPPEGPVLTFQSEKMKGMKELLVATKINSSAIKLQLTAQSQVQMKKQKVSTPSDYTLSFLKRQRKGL
SMILES,IC50 (MV4-11 cells; [2]) [nM],IC50 [1] [µM],"IC50 (MV4-11 cells; MV4-11, 72 h, 11 IC50 (nM)) [nM]"
"CCN(C(=O)c1cc(F)ccc1Oc1cncnc1N1CC2(CCN(C[C@H]3CC[C@H](NS(=O)(=O)CC)CO3)CC2)C1)C(C)C [Example 52, N-Ethyl-2-((4-(7-(((2R,5S)-5-(ethylsulfonamido)tetrahydro-2H-pyran-2-yl)methyl)-2,7-diazaspiro[3.5]nonan-2-yl)pyrimidin-5-yl)oxy)-5-fluoro-N-isopropylbenzamide]",100 to 1000,< 0.1,–
"CCS(=O)(=O)N[C@@H]1CC[C@@H](CN2CCC3(CC2)CN(c2ncncc2Oc2ccc(F)cc2C(=O)N(C[C@@H](O)CO)C(C)C)C3)OC1 [Example 255, N-((R)-2,3-Dihydroxypropyl)-2-((4-(7-(((2S,5R)-5-(ethylsulfonamido)tetrahydro-2H-pyran-2-yl)methyl)-2,7-diazaspiro[3.5]nonan-2-yl)pyrimidin-5-yl)oxy)-5-fluoro-N-isopropylbenzamide]",–,–,100 to 1000
"CCS(=O)(=O)N[C@@H]1CC[C@@H](CN2CCC3(CC2)CN(c2ncncc2Oc2ccc(F)cc2C(=O)N(C(C)C)[C@@H]2CC[C@@H]2O)C3)OC1 [Example 258, 2-((4-(7-(((2S,5R)-5-(Ethylsulfonamido)tetrahydro-2H-pyran-2-yl)methyl)-2,7-diazaspiro[3.5]nonan-2-yl)pyrimidin-5-yl)oxy)-5-fluoro-N-((1R,2S)-2-hydroxycyclobutyl)-N-isopropylbenzamide]",< 100,–,–
